Source: ChEMBL document CHEMBL5260814, “Design strategies in the prodrugs of HIV-1 protease inhibitors to improve the pharmaceutical properties” (Eur J Med Chem, 2017)
In brackets after ≈: the same amount, converted by molar mass.

How the values were obtained:
[1] = tested on: P-glycoprotein; test: Efflux ratio of apparent permeability across basal to apical membrane over apical to basal membrane in human Caco-2 cells in absence of P-glycoprotein; type: ADME, cell-based
[2] = Metabolic stability in rat liver microsome assessed as half life […]; type: ADME; conditions: liver microsomes
[3] = Oral bioavailability in rat at 3 mg/kg; type: ADME, organism-based; conditions: in vivo
[4] = Solubility of compound at pH at 1 to 8; type: physicochemical
[5] = Aqueous solubility of compound; type: physicochemical; conditions: buffer
[6] = AUC in rat at 5 mg/kg, po; type: ADME, organism-based; set-up: dose 5 mg/kg, route po; conditions: in vivo
[7] = Stability of compound in PBS buffer at pH 7.3 assessed as half life; type: physicochemical
[8] = Solubility of compound at pH at 7; type: physicochemical; conditions: pH 7
[9] = Solubility of compound at pH at 3 to 4; type: physicochemical
[10] = Solubility of compound at pH at 3; type: physicochemical; conditions: pH 3
[11] = Equilibrium solubility of compound; type: physicochemical
[12] = Stability of compound assessed as half life at pH 2; type: physicochemical; conditions: buffer
[13] = tested on: CEM-SS; test: Cytotoxicity against human CEM-SS cells assessed as inhibition of cell growth; type: functional
[14] = target: Human immunodeficiency virus type 1 protease (Human immunodeficiency virus 1, UniProt Q72874); test: Inhibition of HIV-1 protease by FRET-based assay
[15] = Metabolic stability in rat liver microsome assessed as compound remaining measured after 2 hrs; type: ADME; conditions: microsomes
[16] = Chemical stability of compound in PBS buffer at pH 4 assessed as half life measured for 24 hrs; type: physicochemical
[17] = Chemical stability of compound in PBS buffer at pH 7.4 assessed as half life measured for 24 hrs; type: physicochemical
[18] = Water solubility of compound; type: physicochemical
[19] = Stability of compound in PBS at pH 7.4 assessed as half life; type: physicochemical
[20] = Stability of compound in PBS at pH 5.5 assessed as half life; type: physicochemical
[21] = Stability of compound in PBS at pH 4.9 assessed as half life; type: physicochemical
[22] = Half life in calf; type: ADME, Bos taurus; conditions: cattle

Question: For `CC(C)[C@@H](N)C(=O)O[C@H](CN1C[C@H]2CCCC[C@H]2C[C@H]1C(=O)NC(C)(C)C)[C@H](Cc1ccccc1)NC(=O)[C@H](CC(N)=O)NC(=O)c1ccc2ccccc2n1`, which efflux ratio [1] is on record?
Answer: Its efflux ratio is 1.2.

Question: And the half-life [2]?
Answer: The half-life was 56 min.

Question: With `CC(C)[C@H](NC(=O)[C@H](N)C(C)C)C(=O)O[C@H](CN1C[C@H]2CCCC[C@H]2C[C@H]1C(=O)NC(C)(C)C)[C@H](Cc1ccccc1)NC(=O)[C@H](CC(N)=O)NC(=O)c1ccc2ccccc2n1` as the compound, how does the efflux ratio [1] read?
Answer: The efflux ratio was 1.2.

Question: What about the half-life [2] of the same compound?
Answer: Its half-life is 224 min.

Question: Which bioavailability [3] does the source give for `CC(C)(C)NC(=O)[C@@H]1CN(Cc2cccnc2)CCN1C[C@@H](O)C[C@@H](Cc1ccccc1)C(=O)N[C@H]1c2ccccc2C[C@H]1O.O` here?
Answer: The bioavailability was 76%.

Question: For `CC(C)CN(C[C@@H](OP(=O)(O)O)[C@H](Cc1ccccc1)NC(=O)O[C@H]1CCOC1)S(=O)(=O)c1ccc(N)cc1` [FOSAMPRENAVIR], which solubility [4] is on record?
Answer: Its solubility is over 3 mg/mL.

Question: What does the source list for `Cc1cccc(C)c1OCC(=O)N[C@@H](Cc1ccccc1)[C@H](C[C@H](Cc1ccccc1)NC(=O)[C@H](C(C)C)N1CCCNC1=O)OCOP(=O)([O-])[O-].[Na+].[Na+]`?
Answer: solubility [5]: > 5 mg/mL; AUC [6]: 19650 ng·h/mL

Question: With `Cc1c(OC(=O)CCCCO[C@H]2O[C@H](CO)[C@@H](O)[C@H](O)[C@@H]2O)cccc1C(=O)N[C@@H](CSc1ccccc1)[C@@H](CN1C[C@H]2CCCC[C@H]2C[C@H]1C(=O)NC(C)(C)C)OC(=O)CCCCO[C@H]1O[C@H](CO)[C@@H](O)[C@H](O)[C@@H]1O` as the compound, how does the half-life [7] read?
Answer: The half-life was 50 h.

Question: Which AUC [6] does the source give for `CCCC(O[C@@H](C[C@H](Cc1ccccc1)NC(=O)[C@@H](NC(=O)N(C)Cc1csc(C(C)C)n1)C(C)C)[C@H](Cc1ccccc1)NC(=O)OCc1cncs1)OP(=O)([O-])[O-].[Na+].[Na+]` (stereo not given in full) here?
Answer: Its AUC is 450 ng·h/mL.

Question: With `CC(C)CN(C[C@@H](OP(=O)([O-])[O-])[C@H](Cc1ccccc1)NC(=O)O[C@H]1CCOC1)S(=O)(=O)c1ccc(N)cc1.[Ca+2]` [FOSAMPRENAVIR CALCIUM] as the compound, how does the solubility [8] read?
Answer: Its solubility is 0.3 mg/mL.

Question: What about the solubility [9] of the same compound?
Answer: Its solubility is 54 mg/mL.

Question: What about the solubility [10] of the same compound?
Answer: Its solubility is 54 mg/mL.

Question: And the solubility thermodynamic [11]?
Answer: Its solubility thermodynamic is 400 µM.

Question: With `Cc1cccc(C)c1OCC(=O)N[C@@H](Cc1ccccc1)[C@H](C[C@H](Cc1ccccc1)NC(=O)[C@H](C(C)C)N1CCCNC1=O)OC(C)OP(=O)([O-])[O-].[Na+].[Na+]` (stereo not given in full) as the compound, how does the solubility [5] read?
Answer: The solubility was over 5 mg/mL.

Question: What about the half-life [12] of the same compound?
Answer: The half-life was under 15 min.

Question: And the AUC [6]?
Answer: The AUC was 9530 ng·h/mL.

Question: Which CC50 [13] does the source give for `CCCCCCCCCCCCCCCC(=O)OCC(COC(=O)CCCCCCCCCCCCCCC)OC(=O)CCC(=O)O[C@@H](C[C@@H](Cc1ccccc1)C(=O)N[C@H]1c2ccccc2C[C@H]1O)CN1CCN(Cc2cccnc2)C[C@H]1C(=O)NC(C)(C)C` here?
Answer: Its CC50 is over 100 µM.

Question: For `CC(C)CN(C[C@@H](OP(=O)([O-])[O-])[C@H](Cc1ccccc1)NC(=O)O[C@H]1CCOC1)S(=O)(=O)c1ccc(N)cc1.[Na+].[Na+]` [FOSAMPRENAVIR SODIUM], which solubility [4] is on record?
Answer: The solubility was over 3 mg/mL.

Question: For `CCCCCCCC/C=C\CCCCCCCC(=O)OCC(COC(=O)CCCCCCC/C=C\CCCCCCCC)OC(=O)CCC(=O)O[C@H](CN1C[C@H]2CCCC[C@H]2C[C@H]1C(=O)NC(C)(C)C)[C@H](Cc1ccccc1)NC(=O)[C@H](CC(N)=O)NC(=O)c1ccc2ccccc2n1`, which CC50 [13] is on record?
Answer: The CC50 was over 100 µM.

Question: For `COc1ccc(S(=O)(=O)N(CC(C)C)C[C@@H](O)[C@H](Cc2ccccc2)NC(=O)CCC(=O)O)cc1`, which IC50 [14] is on record?
Answer: Its IC50 is 0.0118 µM.

Question: With `Cc1cccc(C)c1OCC(=O)N[C@@H](Cc1ccccc1)[C@@H](O)C[C@H](Cc1ccccc1)NC(=O)[C@H](C(C)C)N1CCCNC1=O` [LOPINAVIR] as the compound, how does the Stability [15] read?
Answer: The Stability was 5%.

Question: What about the half-life [16] of the same compound?
Answer: Its half-life is 101 h.

Question: What about the half-life [17] of the same compound?
Answer: Its half-life is 324 min.

Question: And the solubility [5]?
Answer: The solubility was 0.007 mg/mL (≈ 11.1 µM).

Question: Which CC50 [13] does the source give for `CCCCCCCCCCCCCCCC(=O)OCC(COC(=O)CCCCCCCCCCCCCCC)OC(=O)CCC(=O)O[C@H](CN1C[C@H]2CCCC[C@H]2C[C@H]1C(=O)NC(C)(C)C)[C@H](Cc1ccccc1)NC(=O)[C@H](CC(N)=O)NC(=O)c1ccc2ccccc2n1` here?
Answer: Its CC50 is over 100 µM.

Question: Which results are given for `CC(C)(C)NC(=O)[C@H]1N(C(=O)[C@@H](OC(=O)COc2ccccc2)[C@@H](N)Cc2ccccc2)CSC1(C)C.Cl`?
Answer: solubility [18]: 21 mg/mL; half-life [19]: < 1 min; half-life [20]: 3.2 min; half-life [21]: 24 min

Question: With `CC(C)(C)NC(=O)[C@@H]1CSCN1C(=O)[C@@H](OC(=O)COc1ccccc1)[C@@H](N)Cc1ccccc1.Cl` as the compound, how does the solubility [18] read?
Answer: Its solubility is 32 mg/mL.

Question: And the half-life [19]?
Answer: The half-life was under 1 min.

Question: And the half-life [20]?
Answer: Its half-life is 2.9 min.

Question: What about the half-life [21] of the same compound?
Answer: The half-life was 21.2 min.

Question: For `CC(C)c1nc(CN(C)C(=O)N[C@H](C(=O)N[C@@H](Cc2ccccc2)C[C@H](OC(OP(=O)([O-])[O-])C(C)C)[C@H](Cc2ccccc2)NC(=O)OCc2cncs2)C(C)C)cs1.[Na+].[Na+]` (stereo not given in full), which half-life [22] is on record?
Answer: Its half-life is over 30 min.
